Measurements as given in the supplement of paper PMC10307832.

Assays:
Assay in all cases: relative viability (nuclei count vs DMSO), 5 days (fraction); higher = more cells survive
Alpelisib + Lapatinib = compound: Cc1nc(NC(=O)N2CCC[C@H]2C(N)=O)sc1-c1ccnc(C(C)(C)C(F)(F)F)c1 [Alpelisib] + CS(=O)(=O)CCNCc1ccc(-c2ccc3ncnc(Nc4ccc(OCc5cccc(F)c5)c(Cl)c4)c3c2)o1 [Lapatinib] (partner 2 µM)
In short: (§1)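 Lung cancer cell lines in 1536-well plates got either a single drug or a fixed anchor-drug dose together with five library-drug doses (not always all listed) in √10 steps, by pin tool, on the day after seeding. Nuclei were counted after 5 days, and relative viability is the treated-to-vehicle ratio of nuclei counts. Values are medians of duplicate plates.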

Alpelisib + Crizotinib = compound: Cc1nc(NC(=O)N2CCC[C@H]2C(N)=O)sc1-c1ccnc(C(C)(C)C(F)(F)F)c1 [Alpelisib] + C[C@@H](Oc1cc(-c2cnn(C3CCNCC3)c2)cnc1N)c1c(Cl)ccc(F)c1Cl [Crizotinib] (partner 1 µM)
In short: as §1

Alpelisib + Olaparib = compound: Cc1nc(NC(=O)N2CCC[C@H]2C(N)=O)sc1-c1ccnc(C(C)(C)C(F)(F)F)c1 [Alpelisib] + O=C(c1cc(Cc2n[nH]c(=O)c3ccccc23)ccc1F)N1CCN(C(=O)C2CC2)CC1 [Olaparib] (partner 8 µM)
In short: as §1

OSI-027 + Dasatinib = compound: COc1cccc2cc(-c3nc([C@H]4CC[C@H](C(=O)O)CC4)n4ncnc(N)c34)[nH]c12 [OSI-027] + Cc1nc(Nc2ncc(C(=O)Nc3c(C)cccc3Cl)s2)cc(N2CCN(CCO)CC2)n1 [Dasatinib] (partner 0.075 µM)
In short: as §1

Cell Line	relative viability (Alpelisib + Lapatinib; first compound 0.04 µM)	relative viability (Alpelisib + Lapatinib; first compound 0.1265 µM)	relative viability (Alpelisib + Lapatinib; first compound 0.4 µM)	relative viability (Alpelisib + Lapatinib; first compound 1.265 µM)	relative viability (Alpelisib + Lapatinib; first compound 4 µM)	relative viability (Alpelisib + Crizotinib; first compound 0.04 µM)	relative viability (Alpelisib + Crizotinib; first compound 0.1265 µM)	relative viability (Alpelisib + Crizotinib; first compound 0.4 µM)	relative viability (Alpelisib + Crizotinib; first compound 1.265 µM)	relative viability (Alpelisib + Crizotinib; first compound 4 µM)	relative viability (Alpelisib + Olaparib; first compound 0.04 µM)	relative viability (Alpelisib + Olaparib; first compound 0.1265 µM)	relative viability (Alpelisib + Olaparib; first compound 0.4 µM)	relative viability (Alpelisib + Olaparib; first compound 1.265 µM)	relative viability (Alpelisib + Olaparib; first compound 4 µM)	relative viability (OSI-027 + Dasatinib; first compound 0.01 µM)	relative viability (OSI-027 + Dasatinib; first compound 0.03162 µM)	relative viability (OSI-027 + Dasatinib; first compound 0.1 µM)	relative viability (OSI-027 + Dasatinib; first compound 0.3162 µM)	relative viability (OSI-027 + Dasatinib; first compound 1 µM)
HCC-44	1.12	1.02	1.05	0.877	0.893	0.78	0.723	0.833	0.773	0.634	0.979	0.943	1.07	0.979	0.936					
HCC-78	0.619	0.39	1.07	0.659	0.413	0.289	0.294	0.318	0.234	0.242	0.694	0.825	0.857	0.44	0.521	0.329	0.356	0.3	0.266	0.325
HCC-366	1.04	1.02	1.14	0.824	0.535	0.488	0.459	0.585	0.215	0.0795	0.338	0.287	0.374	0.217	0.16	0.679	0.708	0.61	0.477	0.395
HCC-827	0.19	0.192	0.211	0.179	0.188	0.927	0.884	0.949	0.91	0.88	0.601	0.678	0.768	0.499	0.503	0.298	0.295	0.326	0.226	0.222
HOP-62	1.03	0.775	1.02	0.826	0.794	0.97	0.714	0.884	0.733	0.72	0.533	0.435	0.532	0.282	0.401	0.6	0.675	0.591	0.556	0.301
IA-LM	0.977	0.802	0.842	0.708	0.74	0.829	0.643	1.23	0.718	0.818	1.03	0.857	0.776	0.723	0.667					
LC-2-ad	0.958	1.01	0.975	0.645	0.542	0.501	0.316	0.532	0.351	0.386	0.718	0.379	0.78	0.733	0.651	0.585	0.537	0.494	0.455	0.333
LCLC-97TM1	0.75	0.854	0.656	0.686	0.387	0.343	0.295	0.427	0.208	0.157	0.379	0.396	0.304	0.197	0.116	0.91	0.907	0.849	0.746	0.573
LCLC-103H						0.928	0.976	1.05	0.899	0.787	0.766	0.787	0.744	0.603	0.497	0.48	0.497	0.434	0.439	0.27
LK-2	0.871	0.763	0.768	0.474	0.564	0.284	0.188	0.215	0.233	0.252	0.636	0.464	0.74	0.301	0.328	0.343	0.266	0.24	0.203	0.225
NCI-H441						0.743	0.567	0.746	0.432	0.435	0.549	0.478	0.733	0.46	0.236	0.74	0.577	0.706	0.505	0.526
NCI-H522											0.795	0.693	0.529	0.661	0.491	0.963	0.944	0.723	0.629	0.736
NCI-H1299	0.977	0.981	0.997	1.03	1.02	0.935	0.943	1	0.996	0.936	1	0.96	1.01	0.896	0.966					
NCI-H1395	0.88	0.909	1.15	0.75	0.921						0.45	0.511	0.472	0.408	0.451	0.385	0.398	0.373	0.341	0.343
NCI-H1563	0.873	0.941	1.03	0.857	0.868	0.877	0.89	0.753	0.775	0.707						0.444	0.467	0.447	0.457	0.454
NCI-H1623																0.52	0.607	0.455	0.365	0.275
NCI-H1648											0.887	0.758	1.13	0.4	0.331					
NCI-H1703	0.949	0.886	0.789	0.526	0.678	0.465	0.576	0.539	0.277	0.35	0.415	0.335	0.296	0.204	0.15					
NCI-H1793	0.647	0.642	0.637	0.513	0.613						0.805	0.714	0.685	0.495	0.367	0.352	0.391	0.389	0.279	0.193
NCI-H2342											0.448	0.429	0.405	0.367	0.266	0.316	0.278	0.314	0.296	0.316
SW 900											0.878		0.974	0.914	0.795		0.6	0.641	0.487	0.288
